Measured values published in patent US20100152434A1, “Protein Kinase-binding Nucleosides and Associated Methods” (priority 2007, published 2010).
Where two headings read alike, the source gives them in different places.

Tests used:
[1] = test system: 788-0; conditions: 788-0
[2] = test system: SK-MEL-5
[3] = test system: NCI-H460; experiment: cells; conditions: Homo sapiens, NCI-H460, 48 h
[4] = test system: OVCAR-5
[5] = test system: NCI-H322M; experiment: cells; conditions: Homo sapiens, NCI-H322M, 48 h
[6] = test system: SK-OV-3; experiment: cells; conditions: Homo sapiens, SK-OV-3, 48 h
[7] = test system: SNB-19; experiment: cells; conditions: Homo sapiens, SNB-19, 48 h
[8] = test system: NCI/ADR-RES; conditions: NCI/ADR-RES
[9] = test system: MALME-3M; experiment: cells; conditions: Homo sapiens, 48 h
[10] = test system: RXF 393; experiment: cells; conditions: Homo sapiens, RXF 393, 48 h
[11] = test system: KM12; experiment: cells; conditions: Homo sapiens, KM12, 48 h
[12] = test system: SK-OV-3
[13] = test system: OVCAR-3
[14] = test system: HT29; experiment: cells; conditions: Homo sapiens, HT-29, 48 h
[15] = test system: OVCAR-8; experiment: cells; conditions: Homo sapiens, OVCAR-8, 48 h
[16] = test system: UACC-257
[17] = test system: HCT-116
[18] = test system: MDA-MB-231/ATCC
[19] = test system: SK-MEL-5; experiment: cells; conditions: Homo sapiens, SK-MEL-5, 48 h
[20] = test system: BT-549
[21] = test system: SF-295; experiment: cells; conditions: Homo sapiens, SF-295, 48 h
[22] = test system: CCRF-CEM
[23] = test system: SN12C; experiment: cells; conditions: Homo sapiens, 48 h
[24] = test system: MCF7
[25] = test system: HOP-92; experiment: cells; conditions: Homo sapiens, HOP-92, 48 h
[26] = test system: NCI-H23; experiment: cells; conditions: Homo sapiens, NCI-H23, 48 h
[27] = test system: OVCAR-4; experiment: cells; conditions: Homo sapiens, OVCAR-4, 48 h
[28] = Log10 Concentration −4.0, Molar
[29] = Log10 Concentration −5.0, Molar
[30] = Log10 Concentration −6.0, Molar
[31] = Log10 Concentration −7.0, Molar
[32] = Log10 Concentration −8.0, Molar

CCOC(=O)C[C@@H]1C(O[Si](C)(C)C(C)(C)C)[C@H](n2cnc3c(NC(=O)Nc4ccccc4)ncnc32)O[C@@H]1CNC(=O)NC (stereo partly drawn) [Compound 10]
TGI ([1]; 48 h): 5.21E−8 Molar
Percent Growth [1, 28]: −97%
Percent Growth [1, 29]: −34%
Percent Growth [1, 30]: 86%
Percent Growth [1, 31]: 83%
Percent Growth [1, 32]: 92%
TGI ([2]; 48 h): >1.00E−4 Molar
Percent Growth [2, 28]: 11%
Percent Growth [2, 29]: 28%
Percent Growth [2, 30]: 89%
Percent Growth [2, 31]: 100%
Percent Growth [2, 32]: 96%
GI50 [3]: 5.54 µM
CC50 ([3]; read-out: LC50): > 100 µM
TGI ([4]; 48 h): >1.00E−4 Molar
Percent Growth [4, 28]: 27%
Percent Growth [4, 29]: 72%
Percent Growth [4, 30]: 95%
Percent Growth [4, 31]: 103%
Percent Growth [4, 32]: 104%
GI50 [5]: > 100 µM
CC50 ([5]; read-out: LC50): > 100 µM
GI50 [6]: 21 µM
CC50 ([6]; read-out: LC50): > 100 µM
GI50 [7]: 29 µM
CC50 ([7]; read-out: LC50): > 100 µM
TGI ([8]; 48 h): >1.00E−4 Molar
Percent Growth [8, 28]: 59%
Percent Growth [8, 29]: 80%
Percent Growth [8, 30]: 104%
Percent Growth [8, 31]: 107%
Percent Growth [8, 32]: 105%
GI50 [9]: 10.3 µM
CC50 ([9]; read-out: LC50): > 100 µM
GI50 [10]: 2.01 µM
CC50 ([10]; read-out: LC50): 19.5 µM
GI50 [11]: 3.95 µM
CC50 ([11]; read-out: LC50): > 100 µM
TGI ([12]; 48 h): >1.00E−4 Molar
Percent Growth [12, 28]: 16%
Percent Growth [12, 29]: 66%
Percent Growth [12, 30]: 90%
Percent Growth [12, 31]: 96%
Percent Growth [12, 32]: 96%
TGI ([13]; 48 h): 1.72E−5 Molar
Percent Growth [13, 28]: −53%
Percent Growth [13, 29]: 16%
Percent Growth [13, 30]: 116%
Percent Growth [13, 31]: 115%
Percent Growth [13, 32]: 114%
GI50 [14]: 4.2 µM
CC50 ([14]; read-out: LC50): > 100 µM
GI50 [15]: 4.92 µM
CC50 ([15]; read-out: LC50): > 100 µM
TGI ([16]; 48 h): >1.00E−4 Molar
Percent Growth [16, 28]: 9%
Percent Growth [16, 29]: 34%
Percent Growth [16, 30]: 99%
Percent Growth [16, 31]: 102%
Percent Growth [16, 32]: 102%
TGI ([17]; 48 h): 1.61E−5 Molar
Percent Growth [17, 28]: −88%
Percent Growth [17, 29]: 23%
Percent Growth [17, 30]: 78%
Percent Growth [17, 31]: 113%
Percent Growth [17, 32]: 93%
TGI ([18]; 48 h): 4.13E−5 Molar
Percent Growth [18, 28]: −13%
Percent Growth [18, 29]: 20%
Percent Growth [18, 30]: 94%
Percent Growth [18, 31]: 103%
Percent Growth [18, 32]: 101%
GI50 [19]: 4.34 µM
CC50 ([19]; read-out: LC50): > 100 µM
TGI ([20]; 48 h): >1.00E−4 Molar
Percent Growth [20, 28]: 51%
Percent Growth [20, 29]: 67%
Percent Growth [20, 30]: 110%
Percent Growth [20, 31]: 109%
Percent Growth [20, 32]: 104%
GI50 [21]: 5.73 µM
CC50 ([21]; read-out: LC50): > 100 µM
TGI ([22]; 48 h): 8.86E−5 Molar
Percent Growth [22, 28]: −2%
Percent Growth [22, 29]: 41%
Percent Growth [22, 30]: 92%
Percent Growth [22, 31]: 100%
Percent Growth [22, 32]: 96%
GI50 [23]: 9.1 µM
CC50 ([23]; read-out: LC50): > 100 µM
TGI ([24]; 48 h): 4.51E−5 Molar
Percent Growth [24, 28]: −8%
Percent Growth [24, 29]: 16%
Percent Growth [24, 30]: 89%
Percent Growth [24, 31]: 91%
Percent Growth [24, 32]: 96%
GI50 [25]: < 0.01 µM
CC50 ([25]; read-out: LC50): 41.2 µM
GI50 [26]: 33.3 µM
CC50 ([26]; read-out: LC50): > 100 µM
GI50 [27]: 12.3 µM
CC50 ([27]; read-out: LC50): > 100 µM
